Columns and labels:
[1] = biological target: RAC-alpha serine/threonine-protein kinase (Homo sapiens, UniProt P31749); assay: Affinity Biochemical interaction (HTFR assay) EUB0000721a AKT1
[2] = biological target: Histone acetyltransferase KAT2B (Homo sapiens, UniProt Q92831); assay: Affinity Biochemical interaction (BROMOscan assay (DiscoverX)) EUB0000218c KAT2B; parameters: mode of action Inhibitor, recommended concentration 1 uM
[3] = biological target: Transient receptor potential cation channel subfamily A member 1 (Homo sapiens, UniProt O75762); assay: Affinity Biochemical interaction (FLIPR-based Ca2+ assay (activated by 30 µM AITC)) EUB0000547a TRPA1; parameters: mode of action Negative control for A-079, recommended concentration 1 uM
[4] = biological target: Oxidized purine nucleoside triphosphate hydrolase (Homo sapiens, UniProt P36639); assay: Affinity Biochemical interaction (PPiLight Biochemical Assay (full-length human NUDT1)) EUB0000587a NUDT1
[5] = biological target: Calcium/calmodulin-dependent protein kinase kinase 2 (Homo sapiens, UniProt Q96RR4); assay: Affinity Biochemical interaction (Enzymatic activity assay) EUB0000168b CAMKK2; parameters: mode of action Negative control for SGC-CAMKK2-1 (UNC-YL-36), recommended concentration 1 uM
Protein AF-9 [6] = biological target: T1, Protein AF-9 (Homo sapiens, UniProt P42568); assay: Affinity Biochemical interaction (HTRF-based inhibition assay) EUB0000732a MLLT3; parameters: mode of action Negative control for PFI-6, recommended concentration 1 uM
T1 sequence (P42568 whole entry): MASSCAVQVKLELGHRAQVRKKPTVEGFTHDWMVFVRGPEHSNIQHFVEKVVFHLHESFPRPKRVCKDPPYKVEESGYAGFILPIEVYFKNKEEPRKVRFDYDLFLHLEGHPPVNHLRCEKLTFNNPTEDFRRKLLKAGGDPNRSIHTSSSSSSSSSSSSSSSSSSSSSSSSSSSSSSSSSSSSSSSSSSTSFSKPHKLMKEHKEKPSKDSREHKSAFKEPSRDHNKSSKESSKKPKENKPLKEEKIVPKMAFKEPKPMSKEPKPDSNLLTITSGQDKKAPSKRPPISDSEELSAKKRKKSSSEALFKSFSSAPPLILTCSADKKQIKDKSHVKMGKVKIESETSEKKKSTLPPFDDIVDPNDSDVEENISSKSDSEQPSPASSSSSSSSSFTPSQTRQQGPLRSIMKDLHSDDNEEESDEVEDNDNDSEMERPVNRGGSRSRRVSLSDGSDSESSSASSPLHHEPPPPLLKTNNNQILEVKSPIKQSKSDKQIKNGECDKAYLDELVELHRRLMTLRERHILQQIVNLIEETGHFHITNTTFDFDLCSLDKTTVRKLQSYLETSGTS

Protein ENL [7] = biological target: T2, Protein ENL (Homo sapiens, UniProt Q03111); assay: Affinity Biochemical interaction (HTRF-based inhibition assay) EUB0000732a MLLT1; parameters: mode of action Negative control for PFI-6, recommended concentration 1 uM
T2 sequence (Q03111 whole entry): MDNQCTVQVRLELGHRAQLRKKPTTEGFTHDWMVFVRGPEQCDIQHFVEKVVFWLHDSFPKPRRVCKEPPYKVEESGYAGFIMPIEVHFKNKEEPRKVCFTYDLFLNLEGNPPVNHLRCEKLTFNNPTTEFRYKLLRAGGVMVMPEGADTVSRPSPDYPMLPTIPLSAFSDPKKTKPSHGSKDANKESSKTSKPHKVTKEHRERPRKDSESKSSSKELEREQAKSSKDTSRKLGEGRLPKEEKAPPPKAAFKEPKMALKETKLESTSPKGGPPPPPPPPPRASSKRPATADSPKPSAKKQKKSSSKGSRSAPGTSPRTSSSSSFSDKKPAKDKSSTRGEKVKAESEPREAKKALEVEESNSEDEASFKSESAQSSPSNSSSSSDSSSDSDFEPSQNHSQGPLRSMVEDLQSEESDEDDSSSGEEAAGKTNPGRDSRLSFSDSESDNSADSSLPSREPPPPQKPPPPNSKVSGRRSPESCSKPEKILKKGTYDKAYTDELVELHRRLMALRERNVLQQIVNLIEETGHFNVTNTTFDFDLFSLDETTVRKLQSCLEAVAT

Collagenase 3 = Collagenase 3 (Homo sapiens, UniProt P45452); assay: Affinity Biochemical interaction (FRET assay) EUB0000727a MMP13; parameters: mode of action Negative control for BI-4394, recommended concentration 100 nM
[8] = biological target: T3, Histone acetyltransferase p300 (Homo sapiens, UniProt Q09472); assay: Affinity Biochemical interaction (TR-FRET assay (BHC domains)) EUB0000326a EP300
T3 sequence (Q09472 whole entry, the tested form may be a part): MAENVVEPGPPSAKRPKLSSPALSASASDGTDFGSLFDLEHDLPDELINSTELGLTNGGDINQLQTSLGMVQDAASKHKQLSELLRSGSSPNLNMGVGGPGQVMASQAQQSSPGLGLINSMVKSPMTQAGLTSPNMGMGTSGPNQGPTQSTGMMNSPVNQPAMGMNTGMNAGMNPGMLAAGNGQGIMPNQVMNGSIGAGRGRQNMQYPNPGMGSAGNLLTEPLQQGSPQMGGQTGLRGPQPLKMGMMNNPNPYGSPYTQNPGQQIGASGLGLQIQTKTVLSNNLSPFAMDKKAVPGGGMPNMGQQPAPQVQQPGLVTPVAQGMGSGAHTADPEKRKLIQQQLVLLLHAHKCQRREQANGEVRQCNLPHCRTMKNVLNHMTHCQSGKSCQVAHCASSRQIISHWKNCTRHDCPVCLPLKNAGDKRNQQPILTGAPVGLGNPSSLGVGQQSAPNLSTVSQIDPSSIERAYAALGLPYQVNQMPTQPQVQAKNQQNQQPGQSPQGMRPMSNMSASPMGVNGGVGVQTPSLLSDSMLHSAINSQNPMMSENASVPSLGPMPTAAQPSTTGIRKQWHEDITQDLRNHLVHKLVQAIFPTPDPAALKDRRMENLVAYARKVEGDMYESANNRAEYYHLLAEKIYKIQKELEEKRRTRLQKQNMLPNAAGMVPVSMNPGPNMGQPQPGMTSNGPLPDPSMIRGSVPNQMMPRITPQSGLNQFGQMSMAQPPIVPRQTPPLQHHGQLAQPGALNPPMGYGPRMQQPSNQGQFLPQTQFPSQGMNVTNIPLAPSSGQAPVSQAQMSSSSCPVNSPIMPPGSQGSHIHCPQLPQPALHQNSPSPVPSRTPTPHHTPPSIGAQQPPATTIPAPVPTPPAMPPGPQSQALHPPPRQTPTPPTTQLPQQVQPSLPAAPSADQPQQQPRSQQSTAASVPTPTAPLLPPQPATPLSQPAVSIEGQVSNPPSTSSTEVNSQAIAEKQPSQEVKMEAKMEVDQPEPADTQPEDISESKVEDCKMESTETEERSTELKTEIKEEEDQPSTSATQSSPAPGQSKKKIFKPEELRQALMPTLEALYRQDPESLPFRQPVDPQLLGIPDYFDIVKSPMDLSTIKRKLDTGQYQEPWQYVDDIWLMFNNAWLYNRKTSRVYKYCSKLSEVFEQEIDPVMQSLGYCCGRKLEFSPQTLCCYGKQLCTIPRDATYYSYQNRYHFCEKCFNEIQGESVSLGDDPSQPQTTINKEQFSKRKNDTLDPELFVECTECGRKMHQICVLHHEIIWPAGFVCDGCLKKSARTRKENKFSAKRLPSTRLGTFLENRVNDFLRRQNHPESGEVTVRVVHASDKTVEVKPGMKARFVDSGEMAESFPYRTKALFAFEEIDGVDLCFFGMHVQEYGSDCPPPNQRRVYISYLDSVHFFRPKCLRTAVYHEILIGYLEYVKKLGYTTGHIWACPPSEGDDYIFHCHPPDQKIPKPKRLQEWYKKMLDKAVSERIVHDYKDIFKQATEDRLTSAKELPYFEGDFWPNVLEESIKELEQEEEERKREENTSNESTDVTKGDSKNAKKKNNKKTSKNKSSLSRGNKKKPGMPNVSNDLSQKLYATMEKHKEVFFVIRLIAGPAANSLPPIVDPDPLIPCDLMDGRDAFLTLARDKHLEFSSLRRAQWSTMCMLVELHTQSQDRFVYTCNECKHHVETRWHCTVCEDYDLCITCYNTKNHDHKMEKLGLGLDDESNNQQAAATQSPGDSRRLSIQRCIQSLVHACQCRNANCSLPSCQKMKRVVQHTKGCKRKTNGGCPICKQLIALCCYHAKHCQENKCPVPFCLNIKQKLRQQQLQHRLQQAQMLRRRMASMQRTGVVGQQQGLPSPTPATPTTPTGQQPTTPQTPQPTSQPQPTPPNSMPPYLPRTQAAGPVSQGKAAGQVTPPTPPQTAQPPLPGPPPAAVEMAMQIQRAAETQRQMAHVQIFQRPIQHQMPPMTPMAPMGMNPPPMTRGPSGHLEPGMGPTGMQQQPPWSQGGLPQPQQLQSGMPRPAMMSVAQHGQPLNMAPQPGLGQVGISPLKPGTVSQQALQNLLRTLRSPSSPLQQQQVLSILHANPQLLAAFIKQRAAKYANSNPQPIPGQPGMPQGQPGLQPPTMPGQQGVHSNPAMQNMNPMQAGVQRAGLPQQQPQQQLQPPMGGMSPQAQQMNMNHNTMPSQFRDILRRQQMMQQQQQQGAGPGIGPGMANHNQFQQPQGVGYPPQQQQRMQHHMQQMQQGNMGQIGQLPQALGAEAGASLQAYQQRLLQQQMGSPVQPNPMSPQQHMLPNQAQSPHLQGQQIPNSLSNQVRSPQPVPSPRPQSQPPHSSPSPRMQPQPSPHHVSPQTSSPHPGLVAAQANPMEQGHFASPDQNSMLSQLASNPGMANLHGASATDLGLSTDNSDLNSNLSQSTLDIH

[9] = biological target: Protein farnesyltransferase subunit beta (Homo sapiens, UniProt P49356); assay: Affinity Biochemical interaction (Scintillation proximity assay (SPA)) EUB0000736a FNTB; parameters: mode of action Negative control for ABT-100, recommended concentration 1 uM
[10] = biological target: Hepatocyte growth factor receptor (Homo sapiens, UniProt P08581); assay: Affinity Biochemical interaction (Homogeneous Time Resolved Fluorescence Assay) EUB0000293b MET; parameters: mode of action Inhibitor, recommended concentration 1 uM
[11] = biological target: Methionine aminopeptidase 2 (Homo sapiens, UniProt P50579); assay: Affinity Biochemical interaction (Biochemical activity assay (addition of Mn)) EUB0000303b METAP2; parameters: mode of action Inhibitor, recommended concentration 1 uM
[12] = biological target: Fatty-acid amide hydrolase 1 (Homo sapiens, UniProt O00519); assay: Affinity Biochemical interaction (Binding assay) EUB0000540a FAAH; parameters: mode of action Negative control for PF-04457845, recommended concentration 1 uM
[13] = biological target: Transient receptor potential cation channel subfamily M member 8 (Homo sapiens, UniProt Q7Z2W7); assay: Affinity Biochemical interaction (Enzymatic assay) EUB0000546a TRPM8; parameters: mode of action Negative control for PF-05105679, recommended concentration 1 uM
Sequence of Transient receptor potential cation channel subfamily M member 8 (Q7Z2W7 whole entry): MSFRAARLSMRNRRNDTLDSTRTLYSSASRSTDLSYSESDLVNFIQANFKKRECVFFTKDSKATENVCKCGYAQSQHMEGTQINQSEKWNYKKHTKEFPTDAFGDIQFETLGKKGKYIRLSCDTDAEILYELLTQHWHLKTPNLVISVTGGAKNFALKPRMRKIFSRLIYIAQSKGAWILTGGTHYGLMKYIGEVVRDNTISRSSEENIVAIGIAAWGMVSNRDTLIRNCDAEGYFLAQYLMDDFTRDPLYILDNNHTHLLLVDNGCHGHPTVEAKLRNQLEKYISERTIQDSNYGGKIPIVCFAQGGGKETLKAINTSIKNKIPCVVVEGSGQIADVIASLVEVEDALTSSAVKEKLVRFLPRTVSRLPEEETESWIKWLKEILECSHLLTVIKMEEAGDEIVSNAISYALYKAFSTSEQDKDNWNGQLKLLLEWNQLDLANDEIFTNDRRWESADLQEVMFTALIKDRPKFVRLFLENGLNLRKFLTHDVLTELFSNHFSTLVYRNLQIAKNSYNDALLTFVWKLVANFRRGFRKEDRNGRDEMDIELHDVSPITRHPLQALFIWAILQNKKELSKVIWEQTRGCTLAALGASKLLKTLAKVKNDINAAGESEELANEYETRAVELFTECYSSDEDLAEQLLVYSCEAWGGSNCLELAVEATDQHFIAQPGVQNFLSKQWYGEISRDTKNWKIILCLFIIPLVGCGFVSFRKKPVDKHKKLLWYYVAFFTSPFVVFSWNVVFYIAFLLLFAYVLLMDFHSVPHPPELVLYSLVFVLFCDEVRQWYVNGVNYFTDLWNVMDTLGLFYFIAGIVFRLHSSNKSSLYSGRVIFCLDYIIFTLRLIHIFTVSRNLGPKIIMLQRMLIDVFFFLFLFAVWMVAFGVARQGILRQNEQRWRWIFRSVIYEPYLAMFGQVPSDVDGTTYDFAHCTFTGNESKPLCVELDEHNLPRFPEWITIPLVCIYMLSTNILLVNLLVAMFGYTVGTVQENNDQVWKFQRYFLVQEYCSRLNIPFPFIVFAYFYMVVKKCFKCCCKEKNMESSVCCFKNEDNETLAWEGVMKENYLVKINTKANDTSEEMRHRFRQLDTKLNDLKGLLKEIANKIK

[14] = biological target: 5'-AMP-activated protein kinase catalytic subunit alpha-1 (Homo sapiens, UniProt Q13131); assay: Affinity Biochemical interaction (Biochemical PRKAA1 assay (10 µM ATP)) EUB0000707a PRKAA1; parameters: mode of action Negative control for BAY-3827, recommended concentration 100 nM
[15] = biological target: Sodium/hydrogen exchanger 1 (Homo sapiens, UniProt P19634); assay: Affinity Biochemical interaction (pHi change assay) EUB0000545a SLC9A1; parameters: mode of action Negative control for BI-9627, recommended concentration 1 uM
Sequence of Sodium/hydrogen exchanger 1 (P19634 whole entry): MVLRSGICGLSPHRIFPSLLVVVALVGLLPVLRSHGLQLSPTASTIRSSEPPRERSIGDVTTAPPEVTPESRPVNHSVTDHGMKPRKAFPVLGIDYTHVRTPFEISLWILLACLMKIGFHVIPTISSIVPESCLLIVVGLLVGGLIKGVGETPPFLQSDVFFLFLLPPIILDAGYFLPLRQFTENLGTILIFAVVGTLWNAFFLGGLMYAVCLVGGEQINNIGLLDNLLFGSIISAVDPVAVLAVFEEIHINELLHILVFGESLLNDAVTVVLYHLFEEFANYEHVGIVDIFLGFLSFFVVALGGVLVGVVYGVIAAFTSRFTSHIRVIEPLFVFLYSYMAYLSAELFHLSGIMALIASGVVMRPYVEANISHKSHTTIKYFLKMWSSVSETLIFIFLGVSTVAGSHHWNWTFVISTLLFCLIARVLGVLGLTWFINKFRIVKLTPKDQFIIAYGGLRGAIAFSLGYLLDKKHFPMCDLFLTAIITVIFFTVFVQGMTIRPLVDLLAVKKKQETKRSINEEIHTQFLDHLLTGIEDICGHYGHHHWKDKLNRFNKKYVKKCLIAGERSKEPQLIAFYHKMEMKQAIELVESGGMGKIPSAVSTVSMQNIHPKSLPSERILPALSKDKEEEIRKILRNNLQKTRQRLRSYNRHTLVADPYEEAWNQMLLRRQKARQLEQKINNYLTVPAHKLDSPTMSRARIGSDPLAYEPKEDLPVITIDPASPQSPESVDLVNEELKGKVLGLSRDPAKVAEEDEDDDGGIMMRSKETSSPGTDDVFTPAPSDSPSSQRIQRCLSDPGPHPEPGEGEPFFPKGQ

[16] = biological target: T3, Histone acetyltransferase p300
Protein AF-9 [17] = biological target: T1, Protein AF-9; assay: Affinity Biochemical interaction (AlphaScreen assay) EUB0000283b MLLT3; parameters: mode of action Inhibitor, recommended concentration 1 uM
Protein ENL [18] = biological target: T2, Protein ENL; assay: Affinity Biochemical interaction (AlphaScreen assay) EUB0000283b MLLT1; parameters: mode of action Inhibitor, recommended concentration 1 uM

For `C=CC(=O)Nc1ccc2[nH]c(=O)n(C3CCN(C(=O)c4ccc(-c5nc6cc[nH]c(=O)c6cc5-c5ccccc5)cc4)CC3)c2c1`, which IC50 [1] is on record?
The IC50 was 9.2 µM.

Which IC50 [2] does the source give for `Cc1nnc2c3ccccc3c(N[C@@H](C)[C@H](c3ccccc3)N(C)C)nn12` here?
The IC50 was 0.048 µM.

Which IC50 [3] does the source give for `CCC(=N\O)/C(C)=C/c1ccc(F)c(C)c1` [A-226] here?
The IC50 was over 100 µM.

With `CCNC(=O)c1cc2c(N3CCOC[C@@H]3C)ccnc2n1C` as the compound, how does the IC50 [4] read?
Its IC50 is over 20 µM.

How did the IC50 [5] turn out when `O=C(O)c1ccc(-c2coc3ncc(-c4ccccc4)cc23)cc1Cl` was run?
The IC50 was over 27 µM.

Which IC50 (Protein AF-9 [6]) does the source give for `CN(C)C(=O)c1ccc(-c2cc(C(=O)N(C)C3CCCC3)no2)cc1O` here?
Its IC50 is over 30 µM.

And the IC50 (Protein ENL [7])?
Its IC50 is over 30 µM.

Which IC50 (Collagenase 3) does the source give for `Cn1nc(C(=O)NCc2ccc(C(=O)O)cc2)cc1-c1ccc2[nH]ccc2c1` [BI 4395] here?
Its IC50 is over 26 µM.

With `CNC(=O)Nc1ccc2c(c1)[C@@]1(CC2)OC(=O)N(CC(=O)N(Cc2ccc(F)cc2)[C@@H](C)C(F)(F)F)C1=O` [A-486] as the compound, how does the IC50 [8] read?
The IC50 was over 10 µM.

For `Cn1cncc1[C@@](O)(COc1ccc(C#N)cc1-c1ccc(OC(F)(F)F)cc1)c1ccc(C#N)cc1` [A-108], which IC50 [9] is on record?
Its IC50 is over 100 µM.

Which IC50 [10] does the source give for `CC1=C(C#N)C(c2ccc3[nH]nc(C)c3c2)C(C#N)=C(C)N1` [BAY-474] here?
The IC50 was under 0.001 µM.

With `Cc1nc(N2CC[C@H](O)C2)ncc1-c1cc(C(F)(F)F)cc2[nH]ncc12` as the compound, how does the IC50 [11] read?
Its IC50 is 0.007 µM.

With `O=C(Nc1cccnn1)N1CC(C/C=C/c2cncc(Oc3ccc(C(F)(F)F)cn3)n2)C1` as the compound, how does the IC50 [12] read?
Its IC50 is over 100 µM.

How did the IC50 [13] turn out when `C[C@H](c1ccc(F)cc1)N(Cc1ccc(Cl)c(C(=O)O)c1)C(=O)c1cnc2ccccc2c1` [PF-05257137] was run?
The IC50 was over 10 µM.

How did the IC50 [14] turn out when `CC1=C(C#N)C(c2ccc3c(c2)c(NC(=O)c2ccccc2C)nn3C)C(C#N)=C(C)N1` [BAY-974] was run?
The IC50 was over 20 µM.

How did the IC50 [15] turn out when `CC(=O)N1CCC(c2ccc(C(=O)NC3=NCCN3)cc2C(F)(F)F)CC1` [BI 0054] was run?
Its IC50 is over 10 µM.

For `CCC(=O)N1CCOc2c(cc(-c3ccc(OC)c(OC)c3)cc2OC[C@H]2CCCN(C)C2)C1`, which Kd [16] is on record?
The Kd was 0.625 µM.

What does the source list for `C[C@H]1CCCN1Cc1nc2cc(NC(=O)c3ccc4cnccc4c3)ccc2[nH]1`?
IC50 (Protein AF-9 [17]): 0.254 µM; IC50 (Protein ENL [18]): 0.15 µM

From ChEMBL document CHEMBL5210307, “Affinity Biochemical Literature for EUbOPEN Chemogenomics Library wave 3” (2023)
